Results as given in patent US12539292B2, “BRM targeting compounds and associated methods of use” (Arvinas Operations, Inc., priority 2018, dated 2026).
Read-outs that look alike come from different tables or passages of the source.

Biological target: T1, BRM (Homo sapiens, UniProt P51531)
T1 construct: In-Cell Western Screen of BRM Degradation in SW1573 Cells; endogenous in cells; host or cells: SW1573
Assay: In-cell Western screen of BRM degradation in SW1573 cells (Dmax and DC50)
Assay type: cell-based
Method in brief: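 SW1573 cells were treated with compound overnight (18-20 h; final DMSO 0.1%), then fixed in 4% PFA, permeabilized with Triton X-100 and blocked. BRM was detected by in-cell Western using 800 nm anti-rabbit and 680 nm anti-mouse secondaries, and Dmax and DC50 were derived from the LI-COR Odyssey signal.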

[1] = BRM degradation, SW1573 cells, Table 2D, read-out: **Dmax (%) (% degraded)
[2] = BRM degradation, SW1573 cells, Table 2D, read-out: *DC50
[3] = SW1573, % degraded, when tested at the top concentration of between 0.3 and 10 μM, read-out: BRM Dmax (%)
[4] = target protein degradation, read-out: BRM DC50
[5] = BRM degradation, SW1573 cells, read-out: DC50
[6] = BRM degradation, SW1573 cells, tested at the top concentration of between 0.3 and 10 μM, read-out: Dmax (%) (% degraded)

T1 sequence (P51531 whole entry): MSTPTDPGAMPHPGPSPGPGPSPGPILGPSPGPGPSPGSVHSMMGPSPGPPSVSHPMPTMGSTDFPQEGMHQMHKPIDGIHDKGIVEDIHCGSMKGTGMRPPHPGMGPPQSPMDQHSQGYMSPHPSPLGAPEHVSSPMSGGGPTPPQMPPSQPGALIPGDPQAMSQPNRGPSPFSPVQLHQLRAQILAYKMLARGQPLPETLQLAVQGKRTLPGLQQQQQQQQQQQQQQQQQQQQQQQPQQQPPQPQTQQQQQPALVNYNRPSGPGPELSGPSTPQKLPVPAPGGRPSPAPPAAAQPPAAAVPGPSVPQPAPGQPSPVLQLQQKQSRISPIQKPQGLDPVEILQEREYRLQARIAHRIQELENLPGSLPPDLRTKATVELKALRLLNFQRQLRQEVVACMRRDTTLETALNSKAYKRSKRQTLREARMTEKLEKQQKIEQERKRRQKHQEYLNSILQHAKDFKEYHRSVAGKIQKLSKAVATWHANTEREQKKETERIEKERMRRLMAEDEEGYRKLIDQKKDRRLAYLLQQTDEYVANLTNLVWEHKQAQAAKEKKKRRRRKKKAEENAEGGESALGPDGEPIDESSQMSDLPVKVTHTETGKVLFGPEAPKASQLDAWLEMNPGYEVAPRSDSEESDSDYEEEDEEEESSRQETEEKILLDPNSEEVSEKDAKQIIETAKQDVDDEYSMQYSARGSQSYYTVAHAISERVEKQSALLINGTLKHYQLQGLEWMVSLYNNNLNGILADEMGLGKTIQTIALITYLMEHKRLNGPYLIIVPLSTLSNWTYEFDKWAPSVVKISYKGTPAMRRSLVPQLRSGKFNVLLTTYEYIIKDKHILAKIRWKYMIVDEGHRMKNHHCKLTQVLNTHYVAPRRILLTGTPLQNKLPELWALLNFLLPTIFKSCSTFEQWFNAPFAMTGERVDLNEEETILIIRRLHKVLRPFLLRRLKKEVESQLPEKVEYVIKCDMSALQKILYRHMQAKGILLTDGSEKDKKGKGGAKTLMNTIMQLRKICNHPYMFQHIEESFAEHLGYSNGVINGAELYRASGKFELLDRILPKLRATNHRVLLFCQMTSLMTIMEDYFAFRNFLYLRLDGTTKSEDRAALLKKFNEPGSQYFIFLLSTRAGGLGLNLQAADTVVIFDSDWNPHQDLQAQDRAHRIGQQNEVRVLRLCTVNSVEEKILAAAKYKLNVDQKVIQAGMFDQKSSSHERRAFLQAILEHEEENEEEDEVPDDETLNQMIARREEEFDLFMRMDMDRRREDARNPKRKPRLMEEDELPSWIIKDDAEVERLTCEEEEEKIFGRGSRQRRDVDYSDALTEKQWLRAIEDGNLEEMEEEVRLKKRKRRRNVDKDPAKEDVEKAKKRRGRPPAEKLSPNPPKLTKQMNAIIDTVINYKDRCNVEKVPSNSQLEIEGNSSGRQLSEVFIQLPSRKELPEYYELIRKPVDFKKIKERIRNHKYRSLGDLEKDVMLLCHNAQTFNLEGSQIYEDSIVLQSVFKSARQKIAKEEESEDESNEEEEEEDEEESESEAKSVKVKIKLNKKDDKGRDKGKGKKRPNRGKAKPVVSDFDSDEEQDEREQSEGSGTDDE

Structure (SMILES)	DC50 [2]	Dmax [3]	DC50 [5]	also measured
Cc1ncsc1-c1ccc([C@H](C)NC(=O)[C@@H]2C[C@@H](O)CN2C(=O)[C@@H](c2cc(N3CCN(CCOc4cc(N5C6CCC5CN(c5cc(-c7ccccc7O)nnc5N)C6)ccn4)CC3)no2)C(C)C)cc1 [compound 592, (2S,4R)-1-((2R)-2-(3-(4-(2-((4-(3-(3-amino-6-(2-hydroxyphenyl)pyridazin-4-yl)-3,8-diazabicyclo[3.2.1]octan-8-yl)pyridin-2-yl)oxy)ethyl)piperazin-1-yl)isoxazol-5-yl)-3-methylbutanoyl)-4-hydroxy-N-((S)-1-(4-(4-methylthiazol-5-yl)phenyl)ethyl) pyrrolidine-2-carboxamide]	< 2.5 nM	–	–	Dmax [1]: > 75%
Cc1ncsc1-c1ccc([C@@H](NC(=O)[C@@H]2C[C@@H](O)CN2C(=O)[C@H](c2cc(N3CCC(CN4CCC(O[C@H]5C[C@H](Oc6cc(N7C8CCC7CN(c7cc(-c9ccccc9O)nnc7N)C8)ccn6)C5)CC4)CC3)no2)C(C)C)C(=O)N(C)C2CCC2)cc1 [compound 611, (2S,4R)-1-((2S)-2-(3-(4-((4-((1r,3r)-3-((4-(3-(3-amino-6-(2-hydroxyphenyl)pyridazin-4-yl)-3,8-diazabicyclo[3.2.1]octan-8-yl)pyridin-2-yl)oxy)cyclobutoxy)piperidin-1-yl)methyl)piperidin-1-yl)isoxazol-5-yl)-3-methylbutanoyl)-N-((R)-2-(cyclobutyl(methyl)amino)-1-(4-(4-methylthiazol-5-yl)phenyl)-2-oxoethyl)-4-hydroxypyrrolidine-2-carboxamide]	> 30 nM	–	–	–
Cc1n[nH]c(C)c1-c1ccc([C@H](C)NC(=O)[C@@H]2C[C@@H](O)CN2C(=O)[C@@H](c2cc(OCCN3CCC(O[C@H]4C[C@H](Oc5cc(N6C7CCC6CN(c6cc(-c8ccccc8O)nnc6N)C7)ccn5)C4)CC3)no2)C(C)C)cc1 [compound 378, (2S,4R)-1-((2R)-2-(3-(2-(4-((1r,3R)-3-((4-(3-(3-amino-6-(2-hydroxyphenyl)pyridazin-4-yl)-3,8-diazabicyclo[3.2.1]octan-8-yl)pyridin-2-yl)oxy)cyclobutoxy)piperidin-1-yl)ethoxy)isoxazol-5-yl)-3-methylbutanoyl)-N-((S)-1-(4-(3,5-dimethyl-1H-pyrazol-4-yl)phenyl)ethyl)-4-hydroxypyrrolidine-2-carboxamide]	–	> 75%	–	DC50 [4]: < 2.5 nM
Cc1ncsc1-c1ccc([C@H](C)NC(=O)[C@@H]2C[C@@H](O)CN2C(=O)[C@H](c2cc(OCCC3CCN(C(=O)[C@H]4C[C@@H](CN5CCC([C@H](C)n6cc(-c7cc(-c8ccccc8O)nnc7N)cn6)CC5)C4)CC3)no2)C(C)C)cc1 [compound 449, (2S,4R)-1-((S)-2-(3-(2-(1-((1R,3R)-3-((4-((S)-1-(4-(3-amino-6-(2-hydroxyphenyl)pyridazin-4-yl)-1H-pyrazol-1-yl)ethyl)piperidin-1-yl)methyl)cyclobutane-1-carbonyl)piperidin-4-yl)ethoxy)isoxazol-5-yl)-3-methylbutanoyl)-4-hydroxy-N-((S)-1-(4-(4-methylthiazol-5-yl)phenyl)ethyl)pyrrolidine-2-carboxamide]	–	> 75%	–	DC50 [4]: < 2.5 nM
Cc1ncoc1-c1ccc([C@H](C)NC(=O)[C@@H]2C[C@@H](O)CN2C(=O)[C@@H](c2cc(OCCN3CCN(CCOc4cc(N5C6CCC5CN(c5cc(-c7ccccc7O)nnc5N)C6)ccn4)CC3)no2)C(C)C)cn1 [compound 117, (2S,4R)-1-((2R)-2-(3-(2-(4-(2-((4-(3-(3-amino-6-(2-hydroxyphenyl)pyridazin-4-yl)-3,8-diazabicyclo[3.2.1]octan-8-yl)pyridin-2-yl)oxy)ethyl)piperazin-1-yl)ethoxy)isoxazol-5-yl)-3-methylbutanoyl)-4-hydroxy-N-((S)-1-(6-(4-methyloxazol-5-yl)pyridin-3-yl)ethyl)pyrrolidine-2-carboxamide]	–	–	2.5 to 10 nM	Dmax (BRM degradation, SW1573 cells, when tested at the top concentration of between 0.3 and 10 μM, read-out: Dmax (%) (% degraded)): > 75%
Cc1cc([C@H](C(=O)N2C[C@H](O)C[C@H]2C(=O)N[C@@H](C)c2ccc(-c3scnc3C)cc2)[C@@H](C)COCCCCOc2cc(N3C4CCC3CN(c3cc(-c5ccccc5O)nnc3N)C4)ccn2)on1 [compound 432, (2S,4R)-1-((2R,3R)-4-(4-((4-(3-(3-amino-6-(2-hydroxyphenyl)pyridazin-4-yl)-3,8-diazabicyclo[3.2.1]octan-8-yl)pyridin-2-yl)oxy)butoxy)-3-methyl-2-(3-methylisoxazol-5-yl)butanoyl)-4-hydroxy-N-((S)-1-(4-(4-methylthiazol-5-yl)phenyl)ethyl)pyrrolidine-2-carboxamide]	–	> 75%	–	DC50 (degradation of BRM, read-out: BRM DC50): 10 to 30 nM
Cc1ncsc1-c1ccc([C@H](C)NC(=O)[C@@H]2C[C@@H](O)CN2C(=O)[C@@H](c2cc(OCCCN3CCC(O[C@H]4C[C@H](Oc5cc(N6C7CCC6CN(c6cc(-c8ccccc8O)nnc6N)C7)ccn5)C4)CC3)no2)C(C)C)cc1 [compound 218, (2S,4R)-1-((2R)-2-(3-(3-(4-((1r,3R)-3-((4-(3-(3-amino-6-(2-hydroxyphenyl)pyridazin-4-yl)-3,8-diazabicyclo[3.2.1]octan-8-yl)pyridin-2-yl)oxy)cyclobutoxy)piperidin-1-yl)propoxy)isoxazol-5-yl)-3-methylbutanoyl)-4-hydroxy-N-((S)-1-(4-(4-methylthiazol-5-yl)phenyl)ethyl)pyrrolidine-2-carboxamide]	–	–	< 2.5 nM	Dmax [6]: > 75%
Cc1ncsc1-c1cnc([C@H](C)NC(=O)[C@@H]2C[C@@H](O)CN2C(=O)[C@@H](c2cc(OCCN3CCC(O[C@H]4C[C@H](Oc5cc(N6C7CCC6CN(c6cc(-c8ccccc8O)nnc6N)C7)ccn5)C4)CC3)no2)C(C)C)cn1 [compound 491, (2S,4R)-1-((2R)-2-(3-(2-(4-((1r,3R)-3-((4-(3-(3-amino-6-(2-hydroxyphenyl)pyridazin-4-yl)-3,8-diazabicyclo[3.2.1]octan-8-yl)pyridin-2-yl)oxy)cyclobutoxy)piperidin-1-yl)ethoxy)isoxazol-5-yl)-3-methylbutanoyl)-4-hydroxy-N-((S)-1-(5-(4-methylthiazol-5-yl)pyrazin-2-yl)ethyl)pyrrolidine-2-carboxamide]	–	> 75%	–	DC50 (BRM degradation, read-out: BRM DC50): < 2.5 nM
Cc1ncsc1-c1ccc(CNC(=O)[C@@H]2C[C@@H](O)CN2C(=O)[C@@H](c2cc(OCCN3CCN(CCOc4cc(N5C6CCC5CN(c5cc(-c7ccccc7O)nnc5N)C6)ccn4)C[C@@H]3C)no2)C(C)C)cc1 [compound 210, (2S,4R)-1-((2R)-2-(3-(2-((2S)-4-(2-((4-(3-(3-amino-6-(2-hydroxyphenyl)pyridazin-4-yl)-3,8-diazabicyclo[3.2.1]octan-8-yl)pyridin-2-yl)oxy)ethyl)-2-methylpiperazin-1-yl)ethoxy)isoxazol-5-yl)-3-methylbutanoyl)-4-hydroxy-N-(4-(4-methylthiazol-5-yl)benzyl)pyrrolidine-2-carboxamide]	–	–	< 2.5 nM	Dmax [6]: > 75%
Cc1ncsc1-c1ccc([C@H](C)NC(=O)[C@@H]2C[C@@H](O)CN2C(=O)[C@H](c2cc(OCCN3CCC(O[C@H]4C[C@H](Oc5nccc(N6C7CCC6CN(c6cc(-c8ccccc8O)nnc6N)C7)n5)C4)CC3)no2)C(C)C)cc1 [compound 463, (2S,4R)-1-((2S)-2-(3-(2-(4-((1r,3S)-3-((4-(3-(3-amino-6-(2-hydroxyphenyl)pyridazin-4-yl)-3,8-diazabicyclo[3.2.1]octan-8-yl)pyrimidin-2-yl)oxy)cyclobutoxy)piperidin-1-yl)ethoxy)isoxazol-5-yl)-3-methylbutanoyl)-4-hydroxy-N-((S)-1-(4-(4-methylthiazol-5-yl)phenyl)ethyl)pyrrolidine-2-carboxamide]	–	–	–	DC50 [4]: > 30 nM
CC(C)[C@H](C(=O)N1C[C@H](O)C[C@H]1C(=O)N[C@@H](C)c1ccc(-c2ccnn2C)cc1)c1cc(OCCN2CCN(CCOc3cc(N4C5CCC4CN(c4cc(-c6ccccc6O)nnc4N)C5)ccn3)CC2)no1 [compound 263, (2S,4R)-1-((2S)-2-(3-(2-(4-(2-((4-(3-(3-amino-6-(2-hydroxyphenyl)pyridazin-4-yl)-3,8-diazabicyclo[3.2.1]octan-8-yl)pyridin-2-yl)oxy)ethyl)piperazin-1-yl)ethoxy)isoxazol-5-yl)-3-methylbutanoyl)-4-hydroxy-N-((S)-1-(4-(1-methyl-1H-pyrazol-5-yl)phenyl)ethyl)pyrrolidine-2-carboxamide]	–	–	2.5 to 10 nM	Dmax [6]: > 75%
Cc1cc([C@@H](C(=O)N2C[C@H](O)C[C@H]2C(=O)N[C@@H](C)c2ccc(-c3scnc3C)cc2)[C@H](C)COCCCCn2cc(-c3cc(-c4ccccc4O)nnc3N)cn2)on1 [compound 557, (2S,4R)-1-((2S,3S)-4-(4-(4-(3-amino-6-(2-hydroxyphenyl)pyridazin-4-yl)-1H-pyrazol-1-yl)butoxy)-3-methyl-2-(3-methylisoxazol-5-yl)butanoyl)-4-hydroxy-N-((S)-1-(4-(4-methylthiazol-5-yl)phenyl)ethyl) pyrrolidine-2-carboxamide]	> 30 nM	–	–	–
Cc1nccn1-c1ccc([C@H](C)NC(=O)[C@@H]2C[C@@H](O)CN2C(=O)[C@@H](c2cc(N3CCN(C[C@H]4C[C@H](Oc5cc(N6C7CCC6CN(c6cc(-c8ccccc8O)nnc6N)C7)ccn5)C4)CC3)no2)C(C)C)cc1 [compound 576, (2S,4R)-1-((2R)-2-(3-(4-(((1r,3R)-3-((4-(3-(3-amino-6-(2-hydroxyphenyl)pyridazin-4-yl)-3,8-diazabicyclo[3.2.1]octan-8-yl)pyridin-2-yl)oxy)cyclobutyl)methyl)piperazin-1-yl)isoxazol-5-yl)-3-methylbutanoyl)-4-hydroxy-N-((S)-1-(4-(2-methyl-1H-imidazol-1-yl)phenyl)ethyl)pyrrolidine-2-carboxamide]	< 2.5 nM	–	–	Dmax [1]: > 75%
